Results as given in patent US20090280130A1 (priority 2006, published 2009).
Values joined by “and” are separate entries in the source; they are usually repeats but may differ in a detail not shown here. Identical values can stand only once. “Also recorded” adds a separate entry of the source.

How the values were obtained:
[1] = test system: zebrafish embryos; type: in vivo; conditions: n>30
[2] = test system: zebrafish embryos; conditions: in vivo
[3] = test system: mouse skin microvasculature; set-up: species or system C3H/HeJ mice; conditions: in vivo
[4] = test system: zebrafish embryos; conditions: in vivo; remark: listed apart in the source
[5] = target: VEGFR2 (Mus musculus, UniProt P35918); conditions: cited from earlier work
[6] = test system: zebrafish embryos; type: in vivo; conditions: 5 μM for 6 hours
[7] = target: VEGFR1 (Homo sapiens, UniProt P17948); conditions: cited from earlier work
[8] = target: T1, VEGFR2 (Homo sapiens, UniProt P35968); conditions: cited from earlier work
[9] = test system: zebrafish embryos; conditions: in vivo; remark: listed apart in the source
[10] = target: T1, VEGFR2; conditions: cited from earlier work; remark: listed apart in the source

T1 sequence (P35968 20-1356): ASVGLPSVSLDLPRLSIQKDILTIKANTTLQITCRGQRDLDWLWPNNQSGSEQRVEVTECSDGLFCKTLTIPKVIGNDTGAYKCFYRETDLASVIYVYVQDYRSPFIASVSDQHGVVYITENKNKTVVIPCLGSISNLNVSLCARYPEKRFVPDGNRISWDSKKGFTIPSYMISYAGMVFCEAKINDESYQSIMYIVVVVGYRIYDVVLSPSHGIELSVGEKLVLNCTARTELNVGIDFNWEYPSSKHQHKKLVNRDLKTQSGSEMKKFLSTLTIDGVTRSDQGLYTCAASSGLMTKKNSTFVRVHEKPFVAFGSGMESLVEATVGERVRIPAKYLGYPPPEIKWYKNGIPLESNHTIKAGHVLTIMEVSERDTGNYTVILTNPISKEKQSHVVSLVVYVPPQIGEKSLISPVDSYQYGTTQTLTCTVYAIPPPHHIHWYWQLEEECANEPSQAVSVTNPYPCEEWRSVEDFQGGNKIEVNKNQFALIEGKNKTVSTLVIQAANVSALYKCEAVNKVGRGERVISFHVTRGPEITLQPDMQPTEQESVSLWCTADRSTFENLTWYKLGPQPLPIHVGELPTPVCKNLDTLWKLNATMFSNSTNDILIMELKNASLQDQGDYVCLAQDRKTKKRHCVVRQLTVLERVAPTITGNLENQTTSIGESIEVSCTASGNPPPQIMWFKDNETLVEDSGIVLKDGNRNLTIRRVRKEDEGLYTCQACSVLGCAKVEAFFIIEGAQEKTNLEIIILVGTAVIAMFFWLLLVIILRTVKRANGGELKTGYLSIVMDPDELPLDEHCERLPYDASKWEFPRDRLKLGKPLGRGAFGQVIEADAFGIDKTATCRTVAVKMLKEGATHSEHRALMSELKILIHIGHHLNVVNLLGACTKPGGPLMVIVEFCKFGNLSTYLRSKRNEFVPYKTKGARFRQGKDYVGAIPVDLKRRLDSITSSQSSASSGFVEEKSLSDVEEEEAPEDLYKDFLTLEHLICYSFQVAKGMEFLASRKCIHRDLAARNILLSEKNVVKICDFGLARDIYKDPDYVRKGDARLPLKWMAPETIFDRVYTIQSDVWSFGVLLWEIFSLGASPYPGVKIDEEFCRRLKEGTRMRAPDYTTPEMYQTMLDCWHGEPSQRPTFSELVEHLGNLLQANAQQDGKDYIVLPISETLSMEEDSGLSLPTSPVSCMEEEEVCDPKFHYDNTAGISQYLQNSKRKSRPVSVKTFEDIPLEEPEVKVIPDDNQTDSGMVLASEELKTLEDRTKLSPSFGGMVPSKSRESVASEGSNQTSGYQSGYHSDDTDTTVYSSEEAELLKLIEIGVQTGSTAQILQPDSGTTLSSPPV
Sequence of VEGFR2 (Mus musculus, UniProt P35918) (P35918 20-1345): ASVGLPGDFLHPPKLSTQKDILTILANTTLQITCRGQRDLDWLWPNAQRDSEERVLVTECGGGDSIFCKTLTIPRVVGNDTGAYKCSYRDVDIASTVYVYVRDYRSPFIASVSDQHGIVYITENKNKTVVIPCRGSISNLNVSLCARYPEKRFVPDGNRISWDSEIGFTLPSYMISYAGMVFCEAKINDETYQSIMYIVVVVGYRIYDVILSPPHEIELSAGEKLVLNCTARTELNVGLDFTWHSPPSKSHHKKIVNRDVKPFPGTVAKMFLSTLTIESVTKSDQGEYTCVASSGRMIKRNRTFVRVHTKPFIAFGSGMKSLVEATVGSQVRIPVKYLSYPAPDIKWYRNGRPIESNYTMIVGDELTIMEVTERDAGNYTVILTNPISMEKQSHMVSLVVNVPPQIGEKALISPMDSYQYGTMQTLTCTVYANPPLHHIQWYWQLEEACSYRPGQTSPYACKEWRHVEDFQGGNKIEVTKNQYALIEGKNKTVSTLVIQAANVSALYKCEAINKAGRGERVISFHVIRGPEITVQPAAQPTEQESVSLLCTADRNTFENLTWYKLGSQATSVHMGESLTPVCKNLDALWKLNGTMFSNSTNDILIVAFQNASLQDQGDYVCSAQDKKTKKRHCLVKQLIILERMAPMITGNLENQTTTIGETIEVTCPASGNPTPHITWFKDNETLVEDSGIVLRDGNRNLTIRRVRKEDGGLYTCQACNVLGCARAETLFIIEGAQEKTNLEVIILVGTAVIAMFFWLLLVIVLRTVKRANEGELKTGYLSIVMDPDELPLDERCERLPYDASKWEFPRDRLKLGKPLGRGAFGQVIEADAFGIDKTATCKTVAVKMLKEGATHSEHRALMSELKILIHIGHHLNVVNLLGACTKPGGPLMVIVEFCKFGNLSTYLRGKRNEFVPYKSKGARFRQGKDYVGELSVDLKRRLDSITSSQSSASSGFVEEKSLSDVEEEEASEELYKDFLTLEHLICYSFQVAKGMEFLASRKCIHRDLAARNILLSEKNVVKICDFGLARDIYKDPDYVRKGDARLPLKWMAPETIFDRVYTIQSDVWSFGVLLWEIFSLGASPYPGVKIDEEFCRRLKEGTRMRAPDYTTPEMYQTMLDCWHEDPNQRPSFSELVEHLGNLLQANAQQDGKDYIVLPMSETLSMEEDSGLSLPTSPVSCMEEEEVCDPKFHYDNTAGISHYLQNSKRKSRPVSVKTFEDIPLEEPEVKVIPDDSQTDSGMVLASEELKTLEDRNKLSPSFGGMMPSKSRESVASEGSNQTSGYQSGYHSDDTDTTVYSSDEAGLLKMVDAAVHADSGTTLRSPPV
Sequence of VEGFR1 (P17948 27-1338): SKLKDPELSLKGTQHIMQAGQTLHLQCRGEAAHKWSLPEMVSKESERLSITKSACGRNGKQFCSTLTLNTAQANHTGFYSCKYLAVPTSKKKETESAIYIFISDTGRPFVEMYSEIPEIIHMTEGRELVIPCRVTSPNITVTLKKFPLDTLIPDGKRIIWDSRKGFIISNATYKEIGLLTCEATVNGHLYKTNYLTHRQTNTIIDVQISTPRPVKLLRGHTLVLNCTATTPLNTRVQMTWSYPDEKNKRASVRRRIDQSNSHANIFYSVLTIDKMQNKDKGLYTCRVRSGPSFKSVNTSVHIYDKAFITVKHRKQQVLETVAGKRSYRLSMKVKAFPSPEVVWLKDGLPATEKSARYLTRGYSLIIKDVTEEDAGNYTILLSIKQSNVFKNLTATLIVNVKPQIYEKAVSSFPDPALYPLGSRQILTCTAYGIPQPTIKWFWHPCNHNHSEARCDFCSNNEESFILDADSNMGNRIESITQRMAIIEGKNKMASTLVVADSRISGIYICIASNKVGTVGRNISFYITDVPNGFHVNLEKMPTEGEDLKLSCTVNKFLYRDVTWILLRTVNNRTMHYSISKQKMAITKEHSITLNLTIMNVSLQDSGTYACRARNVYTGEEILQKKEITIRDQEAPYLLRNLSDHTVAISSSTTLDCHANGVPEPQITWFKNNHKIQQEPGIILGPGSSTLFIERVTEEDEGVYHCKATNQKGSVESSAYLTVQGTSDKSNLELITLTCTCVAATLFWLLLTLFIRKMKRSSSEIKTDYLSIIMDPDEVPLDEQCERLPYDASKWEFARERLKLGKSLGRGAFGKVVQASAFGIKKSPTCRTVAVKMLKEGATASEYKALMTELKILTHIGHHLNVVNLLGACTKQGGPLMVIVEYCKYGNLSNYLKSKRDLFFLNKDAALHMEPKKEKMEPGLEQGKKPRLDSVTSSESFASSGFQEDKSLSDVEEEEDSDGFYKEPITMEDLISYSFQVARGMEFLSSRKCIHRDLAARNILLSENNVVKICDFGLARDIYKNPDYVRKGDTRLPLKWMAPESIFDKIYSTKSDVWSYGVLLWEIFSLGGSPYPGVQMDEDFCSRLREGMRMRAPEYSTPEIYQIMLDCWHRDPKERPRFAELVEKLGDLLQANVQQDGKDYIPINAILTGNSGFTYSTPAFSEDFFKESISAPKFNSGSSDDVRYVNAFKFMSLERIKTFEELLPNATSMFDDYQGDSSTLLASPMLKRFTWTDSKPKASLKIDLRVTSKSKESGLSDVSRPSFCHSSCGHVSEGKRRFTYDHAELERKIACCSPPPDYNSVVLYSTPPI

Compound: O=C(NOCC1CC1)c1ccc(F)c(F)c1Nc1ccc(I)cc1Cl [CI-1040]
- embryos in which LeTx effects were phenocopied [1]: 100%

Compound: CCN(CC)CCNC(=O)c1c(C)[nH]c(/C=C2\C(=O)Nc3ccc(Cl)cc32)c1C [SU11652]
- Mild Toxin Phenotype [2]: 11
- Protection against LeTx effects / phenotypes (in words) [2]: demonstrated protection against LeTx effects
- Severe Toxin Phenotype [2]: 10
- Wildtype Appearance [2]: 1
- LeTx induced vascular leakage, Evans Blue Dye (in words) [3]: attenuated LeTx induced vascular leakage significantly
- % With Toxin Phen (Mild and Severe) [4]: 80% and 100%
- Mild Phen [4]: 7 and 9 and 8
- Protection against LeTx effects (in words) [4]: able to protect against LeTx effects
- Severe Toxin Phen [4]: 9 and 11 and 12
- Blocking of VEGFR2 activity in vivo (in words) [5]: used successfully to block VEGFR2 activity

Compound: Cn1cc(C=C2C(=O)Nc3ccc(S(N)(=O)=O)cc32)c2ccccc21 [Syk Inhibitor, 3-(1-Methyl-1H-indol-3-yl-methylene)-2-oxo-2,3-dihydro-1H-indol-5-sulfonamide]
- Mild Toxin Phenotype [2]: 7
- Severe Toxin Phenotype [2]: 14
- Wildtype Appearance [2]: 1

Compound: C[C@@H](N)[C@H]1CC[C@H](C(=O)Nc2ccncc2)CC1 [Y-27632]
- Mild Toxin Phenotype [2]: 6
- Severe Toxin Phenotype [2]: 13
- Wildtype Appearance [2]: 1

Compound: C[C@@H]1C[C@@H]([C@H](O)CC2CC(=O)NC(=O)C2)C(=O)[C@@H](C)C1 [cycloheximide]
- Phenocopy of endothelial cell fragmentation in the intersegmental vessels (in words) [6]: phenocopied

Compound: AG-1296
- Mild Toxin Phenotype [2]: 3
- Severe Toxin Phenotype [2]: 15
- Wildtype Appearance [2]: 2

Compound: ZM323881
- Mild Toxin Phenotype [2]: 10
- Protection against LeTx effects / phenotypes (in words) [2]: provided the best protection against the development of LeTx phenotypes; also recorded: demonstrated protection against LeTx effects
- Severe Toxin Phenotype [2]: 8
- Wildtype Appearance [2]: 4
- IC50 [7]: > 50 µM
- VEGFR2 activation (in words) [8]: inhibit VEGFR2 activation
- Mild Toxin Phen [9]: 12 and 8 and 9 and 13
- Proportion of embryos displaying LeTx phenotypes (in words) [9]: reduction in the proportion of embryos displaying LeTx phenotypes is seen in 3 concentrations of the inhibitor
- Severe forms of the LeTx phenotype (in words) [9]: dramatic reduction in the severe forms of the LeTx phenotype that occurred in all concentrations used
- LeTx induced vascular leakage, Evans Blue Dye (in words) [3]: attenuated LeTx induced vascular leakage significantly
- Attenuation of toxin effects (in words) [4]: able to attenuate the toxin effects
- IC50 [10]: < 0.002 µM

Compound: ZM449829
- Mild Toxin Phenotype [2]: 5
- Severe Toxin Phenotype [2]: 15
- Wildtype Appearance [2]: 1
